Results on two molecules are retold here after article PMC6581923 (Journal of Molecular Neuroscience, 2018).

For one experiment, the target named is T1, PAC1-R (Homo sapiens, UniProt P41586).
T1 construct: expressed in transfected cells; host or cells: PAC1-CHO cells (CHO cells expressing PAC1-R); That they are transfected is inferred from the cell line's name
T1 sequence (P41586 21-468): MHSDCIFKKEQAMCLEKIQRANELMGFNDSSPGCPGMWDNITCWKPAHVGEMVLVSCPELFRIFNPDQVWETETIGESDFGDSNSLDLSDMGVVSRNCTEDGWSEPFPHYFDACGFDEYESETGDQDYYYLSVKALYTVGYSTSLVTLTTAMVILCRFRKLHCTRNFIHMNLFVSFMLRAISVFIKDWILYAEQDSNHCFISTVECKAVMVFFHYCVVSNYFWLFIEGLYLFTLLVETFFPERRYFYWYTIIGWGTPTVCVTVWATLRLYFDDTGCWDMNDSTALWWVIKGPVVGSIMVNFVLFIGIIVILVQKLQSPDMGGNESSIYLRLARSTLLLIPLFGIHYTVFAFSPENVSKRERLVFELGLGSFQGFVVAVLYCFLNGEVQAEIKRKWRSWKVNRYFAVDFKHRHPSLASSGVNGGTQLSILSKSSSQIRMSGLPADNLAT
Nature of the experiment: cAMP accumulation assay in PAC1-CHO cells. Particulars: DMEM, 37 °C, 5-10 min, enzyme immunoassay for cAMP, % of maximal cAMP level with PACAP27, means ± SEM of four experiments, read-out: EC50 (activation of PAC1-R, cAMP accumulation). It counts as cell-based. The protocol: PAC1-CHO cells cultured in Dulbecco’s Modified Eagle’s Medium (DMEM) at 37 °C were scraped off the surface with rubber policeman, washed twice with PBS and the density of the cells was adjusted to 2 × 10^6 /mL. Peptides were added to 500 uL cells suspension with the corresponding varying working concentrations of the detected factor. After incubation at 37 °C for 5-10 min cells were harvested and the lysates were subjected to cAMP quantification using the enzyme immunoassay kit for cAMP (Biyuntian, Shanghai, China), following the manufacturer’s instructions. Protein concentration of each sample was determined using BCA assay, and the cAMP level of each sample was calculated following the formula: cAMP level (pmol/mg protein) = cAMP concentration (pmol/mL)/protein concentration (mg/mL). The cAMP level in each sample was plotted as the percentage (%) of the maximal cAMP level in cells treated with PACAP27 versus the logarithmic value of the peptide concentrations. All experiments were run with at least four parallel samples and were repeated three times.
The data are means ± SEM of four experiments
Background: Changes in cAMP serve as a functional read-out for many G protein-coupled receptors.

The conditions of experiment [1]: ref Steingart et al. [2000]; cited from earlier work. An excerpt:
VIP is an important neuromodulator along the visual transmission pathways, not only in the retina, but all the way to the cortex where it influences visual information processing (Galletti and Fattori [2018]; Wilson and Glickfeld [2014]). Regarding retinoprotection, a few studies i ...

By EC50 is commonly meant the concentration that produces a half-maximal response. Regarding `CC[C@H](C)[C@H](NC(=O)[C@H](CO)NC(=O)[C@H](CC(N)=O)NC(=O)[C@H](CC(C)C)NC(=O)[C@H](Cc1ccc(O)cc1)NC(=O)[C@H](CCCCN)NC(=O)[C@H](CCCCN)NC(=O)[C@@H](NC(=O)[C@H](C)NC(=O)[C@H](CCSC)NC(=O)[C@H](CCC(N)=O)NC(=O)[C@H](CCCCN)NC(=O)[C@H](CCCN=C(N)N)NC(=O)[C@H](CC(C)C)NC(=O)[C@H](CCCN=C(N)N)NC(=O)[C@@H](NC(=O)[C@H](Cc1ccc(O)cc1)NC(=O)[C@H](CC(N)=O)NC(=O)[C@H](CC(=O)O)NC(=O)[C@@H](NC(=O)[C@H](Cc1ccccc1)NC(=O)[C@@H](NC(=O)[C@H](C)NC(=O)[C@H](CC(=O)O)NC(=O)[C@H](CO)NC(=O)[C@@H](N)Cc1c[nH]cn1)C(C)C)[C@@H](C)O)[C@@H](C)O)C(C)C)C(=O)N[C@@H](CC(C)C)C(=O)N[C@@H](CC(N)=O)C(N)=O` [VIP, vasoactive intestinal peptide, reference compound], the EC50 on PAC1-R was found to be 30.1 ± 4.1 nM.

B1: activity-dependent neurotrophic protein (protein, UniProt Q9H2P0 1-1102, looked up)
Activity-dependent …: MFQLPVNNLGSLRKARKTVKKILSDIGLEYCKEHIEDFKQFEPNDFYLKNTTWEDVGLWDPSLTKNQDYRTKPFCCSACPFSSKFFSAYKSHFRNVHSEDFENRILLNCPYCTFNADKKTLETHIKIFHAPNASAPSSSLSTFKDKNKNDGLKPKQADSVEQAVYYCKKCTYRDPLYEIVRKHIYREHFQHVAAPYIAKAGEKSLNGAVPLGSNAREESSIHCKRCLFMPKSYEALVQHVIEDHERIGYQVTAMIGHTNVVVPRSKPLMLIAPKPQDKKSMGLPPRIGSLASGNVRSLPSQQMVNRLSIPKPNLNSTGVNMMSSVHLQQNNYGVKSVGQGYSVGQSMRLGLGGNAPVSIPQQSQSVKQLLPSGNGRSYGLGSEQRSQAPARYSLQSANASSLSSGQLKSPSLSQSQASRVLGQSSSKPAAAATGPPPGNTSSTQKWKICTICNELFPENVYSVHFEKEHKAEKVPAVANYIMKIHNFTSKCLYCNRYLPTDTLLNHMLIHGLSCPYCRSTFNDVEKMAAHMRMVHIDEEMGPKTDSTLSFDLTLQQGSHTNIHLLVTTYNLRDAPAESVAYHAQNNPPVPPKPQPKVQEKADIPVKSSPQAAVPYKKDVGKTLCPLCFSILKGPISDALAHHLRERHQVIQTVHPVEKKLTYKCIHCLGVYTSNMTASTITLHLVHCRGVGKTQNGQDKTNAPSRLNQSPSLAPVKRTYEQMEFPLLKKRKLDDDSDSPSFFEEKPEEPVVLALDPKGHEDDSYEARKSFLTKYFNKQPYPTRREIEKLAASLWLWKSDIASHFSNKRKKCVRDCEKYKPGVLLGFNMKELNKVKHEMDFDAEWLFENHDEKDSRVNASKTADKKLNLGKEDDSSSDSFENLEEESNESGSPFDPVFEVEPKISNDNPEEHVLKVIPEDASESEEKLDQKEDGSKYETIHLTEEPTKLMHNASDSEVDQDDVVEWKDGASPSESGPGSQQVSDFEDNTCEMKPGTWSDESSQSEDARSSKPAAKKKATMQGDREQLKWKNSSYGKVEGFWSKDQSQWKNASENDERLSNPQIEWQNSTIDSEDGEQFDNMTDGVAEPMHGSLAGVKLSSQQA
Turning to B1, the “Protection against a variety of stress factors” value in experiment [1] is recorded as “strong protection against a variety of stress factors”.
